# Results reported in the supplement of paper PMC10307832.
# Experiments:
# Assay in all cases: relative viability (nuclei count vs DMSO), 5 days (fraction); higher = more cells survive
# [1] = compound: CO[C@@H]1[C@H](N(C)C(=O)c2ccccc2)C[C@H]2O[C@]1(C)n1c3ccccc3c3c4c(c5c6ccccc6n2c5c31)C(=O)NC4 [Midostaurin] + Cc1cc(Nc2cc(N3CCN(C)CC3)nc(Sc3ccc(NC(=O)C4CC4)cc3)n2)n[nH]1 [Tozasertib] (partner 0.1 µM)
# Outline: (§1)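 Relative viability is defined as nuclei in treated wells over nuclei in vehicle wells. Duplicate plates were run and medians reported. Lung cancer cell lines in 1536-well plates were dosed by pin tool one day after seeding, with one drug or with a fixed anchor-drug dose plus five library-drug doses (not always all listed) in √10 steps, and nuclei were counted after 5 days.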
# [2] = compound: CO[C@@H]1[C@H](N(C)C(=O)c2ccccc2)C[C@H]2O[C@]1(C)n1c3ccccc3c3c4c(c5c6ccccc6n2c5c31)C(=O)NC4 [Midostaurin] + COc1cccc2cc(-c3nc([C@H]4CC[C@H](C(=O)O)CC4)n4ncnc(N)c34)[nH]c12 [OSI-027] (partner 0.5 µM)
# Outline: as §1
# [3] = compound: COc1cc(-c2nn([C@H]3CC[C@H](N4CCN(C(C)=O)CC4)CC3)c3ncnc(N)c23)ccc1NC(=O)c1cc2ccccc2n1C + CCNC(=O)c1noc(-c2cc(C(C)C)c(O)cc2O)c1-c1ccc(CN2CCOCC2)cc1 [Luminespib] (partner 0.01 µM)
# Outline: as §1
# [4] = compound: COc1cc(-c2nn([C@H]3CC[C@H](N4CCN(C(C)=O)CC4)CC3)c3ncnc(N)c23)ccc1NC(=O)c1cc2ccccc2n1C + Cc1nc(NC(=O)N2CCC[C@H]2C(N)=O)sc1-c1ccnc(C(C)(C)C(F)(F)F)c1 [Alpelisib] (partner 2 µM)
# Outline: as §1
# [5] = compound: CO[C@@H]1[C@H](N(C)C(=O)c2ccccc2)C[C@H]2O[C@]1(C)n1c3ccccc3c3c4c(c5c6ccccc6n2c5c31)C(=O)NC4 [Midostaurin] + NC(=O)Nc1cc(-c2cccc(F)c2)sc1C(=O)N[C@H]1CCCNC1 [AZD7762] (partner 0.2 µM)
# Outline: as §1
Cell Line,relative viability ([1]; first compound 0.01 µM),relative viability ([1]; first compound 0.03162 µM),relative viability ([1]; first compound 0.1 µM),relative viability ([1]; first compound 0.3162 µM),relative viability ([2]; first compound 0.01 µM),relative viability ([2]; first compound 0.03162 µM),relative viability ([2]; first compound 0.1 µM),relative viability ([2]; first compound 0.3162 µM),relative viability ([3]; first compound 0.0128 µM),relative viability ([3]; first compound 0.04048 µM),relative viability ([3]; first compound 0.128 µM),relative viability ([3]; first compound 1.28 µM),relative viability ([4]; first compound 0.0128 µM),relative viability ([4]; first compound 0.04048 µM),relative viability ([4]; first compound 0.128 µM),relative viability ([4]; first compound 1.28 µM),relative viability ([5]; first compound 0.01 µM),relative viability ([5]; first compound 0.03162 µM),relative viability ([5]; first compound 0.1 µM),relative viability ([5]; first compound 0.3162 µM)
LCLC-103H,0.522,0.45,0.456,0.379,0.506,0.417,0.425,0.465,0.985,1.18,0.879,0.835,1.02,0.938,0.88,0.775,0.789,0.782,0.682,0.787
EKVX,0.369,0.414,0.366,0.343,0.786,0.616,0.674,0.657,0.864,0.988,0.795,0.631,0.827,1.09,0.75,0.509,0.604,0.713,0.883,0.778
LXF-289,0.23,0.23,0.178,0.176,0.819,0.864,0.842,0.743,0.783,0.732,0.663,0.702,1.1,1.03,1.04,0.958,1.14,1.13,1.07,1.09
ABC-1,0.146,0.191,0.174,0.201,0.488,0.536,0.574,0.521,0.546,0.612,,0.332,0.972,1.08,0.78,1,0.844,0.824,0.729,
NCI-H650,0.657,0.751,0.749,0.615,0.439,0.455,0.507,0.456,0.731,0.861,0.941,0.754,1.49,1.34,1.12,1.05,1.01,1.04,0.942,1.11
NCI-H2085,0.807,0.764,0.663,0.582,0.752,0.655,0.837,0.461,0.416,0.524,0.445,0.43,1.08,0.949,0.975,0.658,0.938,0.998,0.93,0.623
NCI-H1793,0.38,0.39,0.313,0.184,0.319,0.287,0.263,0.216,0.166,0.186,0.168,0.156,0.734,0.682,0.595,0.442,0.395,0.48,0.388,0.213
LC-2-ad,0.509,0.545,0.52,0.422,0.792,0.791,0.898,0.847,1.1,1.29,0.944,0.932,1.01,0.931,0.872,0.699,0.873,0.878,0.843,0.724
